From patent US10576064B2, “Spiro[3H-indole-3,2′-pyrrolidin]-2(1H)-one compounds and derivatives as MDM2-P53 inhibitors” (Boehringer Ingelheim International GmbH, priority 2014, dated 2020)

Biological target: p53-MDM2 interaction (GST-MDM2 protein aa 23-117 / biotinylated p53 wt peptide) (Homo sapiens (Human), UniProt Q00987)
Test: MDM2-p53 Inhibition AlphaScreen
Format: biochemical
Details: 20 nM GST-MDM2 (aa 23-117), 20 nM biotinylated p53 wt peptide
Source text: MDM2-p53 Inhibition AlphaScreen

Row | Compound | IC50 [nM]
1 | O=C1NCC[C@H]2[C@@H]1[C@H](c1cccc(Cl)c1)[C@]1(C(=O)Nc3cc(Cl)ccc31)N2CC1CC1 [Compound I-3] | 263
2 | CCOc1cccc(CN2[C@H]3CCN(c4ccc(C(=O)O)cc4[N+](=O)[O-])C(=O)[C@H]3[C@H](c3cccc(Cl)c3F)[C@]23C(=O)Nc2cc(Cl)ccc23)c1 [Compound I-188] | 16
3 | O=C(O)c1ccc(N2C[C@H]3[C@@H](C2=O)[C@H](c2cccc(Cl)c2F)[C@]2(C(=O)Nc4cc(Cl)ccc42)N3CC2CC2)cc1 [Compound I-217] | 5
4 | O=C1NCC[C@H]2[C@@H]1[C@H](c1cc(Br)cc(Cl)c1F)[C@]1(C(=O)Nc3cc(Cl)ccc31)N2CC1CC1 [Compound I-11] | 462
5 | CCOc1cccc(CN2[C@@H]3CCN(c4ccc(C(=O)OC)cc4)C(=O)[C@@H]3[C@@H](c3cccc(Cl)c3F)[C@@]23C(=O)Nc2cc(Cl)ccc23)c1 [Compound I-112] | 3290
6 | COc1cc(C(=O)O)ccc1N1C[C@H]2[C@@H](C1=O)[C@H](c1cccc(Cl)c1F)[C@]1(C(=O)Nc3cc(Cl)ccc31)N2CC1CC1 [Compound I-219] | 31
7 | CCOc1cccc(CN2[C@H]3CCN(c4ccc(C(=O)OC)cc4)C(=O)[C@H]3[C@H](c3cccc(Cl)c3F)[C@]23C(=O)Nc2cc(Cl)ccc23)c1 [Compound I-71] | 68
8 | CC(C)(C)CN1[C@H]2CN(c3ccc(C(=O)O)cc3)C(=O)[C@H]2[C@H](c2cccc(Cl)c2F)[C@]12C(=O)Nc1cc(Cl)ccc12 [Compound I-229] | 5
9 | CS(=O)(=O)c1ccc(N2CC[C@H]3[C@@H](C2=O)[C@H](c2cccc(Cl)c2F)[C@]2(C(=O)Nc4cc(Cl)ccc42)N3CC2CC2)cc1 [Compound I-76] | 42
10 | O=C(O)c1ccc(-c2cc(Cl)c(F)c([C@H]3[C@@H]4C(=O)NCC[C@@H]4N(CC4CC4)[C@@]34C(=O)Nc3cc(Cl)ccc34)c2)cc1 [Compound I-290] | 36
11 | O=C(NO)c1ccc(N2CC[C@H]3[C@@H](C2=O)[C@H](c2cccc(Cl)c2F)[C@]2(C(=O)Nc4cc(Cl)ccc42)N3CC2CC2)cc1 [Compound I-274] | 20
12 | O=C(O)c1ccc(N2CC[C@H]3[C@@H](C2=O)[C@H](c2cccc(Cl)c2F)[C@]2(C(=O)Nc4cc(Cl)ccc42)N3CC2CC2)cn1 [Compound I-183] | 10
13 | COc1cc(N2C[C@H]3[C@@H](C2=O)[C@H](c2cccc(Br)c2F)[C@]2(C(=O)Nc4cc(Cl)ccc42)N3CC2CC2)ccc1C(=O)O [Compound I-250] | 9
14 | COC(=O)c1ccc(N2CC[C@H]3[C@@H](C2=O)[C@H](c2cccc(Cl)c2F)[C@]2(C(=O)Nc4cc(Cl)ccc42)N3CC2CC2)cc1 [Compound I-63] | 103
15 | COC(=O)c1ccc(N2CC[C@H]3[C@@H](C2=O)[C@H](c2cccc(Cl)c2F)[C@]2(C(=O)Nc4cc(Cl)ccc42)N3CC2CC2C)c(F)c1 (some centres unmarked) [Compound I-84] | 1180
16 | CCOc1cccc(CN2[C@H]3CCN(c4ccc(C(=O)O)cc4)C(=O)[C@H]3[C@H](c3cccc(Cl)c3F)[C@]23C(=O)Nc2cc(Cl)ccc23)c1 [Compound I-186] | 2
17 | O=C(O)c1ccc(N2C[C@@H]3[C@H](C2=O)[C@@H](c2cccc(Cl)c2F)[C@@]2(C(=O)Nc4cc(Cl)ccc42)N3CC2CCCC2)cc1 [Compound I-236] | 488
18 | CCOc1cccc(CN2[C@H]3CCNC(=O)[C@H]3[C@H](c3cccc(Cl)c3F)[C@]23C(=O)Nc2cc(Cl)ccc23)c1 [Compound I-5] | 17
19 | CC1CC1CN1[C@H]2CCN(c3ccc(C(=O)O)cc3)C(=O)[C@H]2[C@H](c2cccc(Cl)c2F)[C@]12C(=O)Nc1cc(Cl)ccc12 (some centres unmarked) [Compound I-196] | 20
20 | O=C1OCC[C@H]2[C@@H]1[C@H](c1cccc(Cl)c1F)[C@]1(C(=O)Nc3cc(Cl)ccc31)N2CC1CC1 [Compound I-37] | 292
21 | CCOc1cccc(CN2[C@H]3CCN(Cc4ccc(C(=O)O)cc4)C(=O)[C@H]3[C@H](c3cccc(Cl)c3F)[C@]23C(=O)Nc2cc(Cl)ccc23)c1 [Compound I-212] | 21
22 | O=C(O)c1ccc(CN2C[C@H]3[C@@H](C2=O)[C@H](c2cccc(Cl)c2F)[C@]2(C(=O)Nc4cc(Cl)ccc42)N3CC2CC2)cc1 [Compound I-242] | 37
23 | CC1CC1CN1[C@H]2CCN(c3ccc(C(=O)O)cc3F)C(=O)[C@H]2[C@H](c2cccc(Cl)c2F)[C@]12C(=O)Nc1cc(Cl)ccc12 (some centres unmarked) [Compound I-190] | 45
24 | CCOc1cccc(CN2[C@H]3CN(c4ccc(C(N)=O)cc4)C(=O)[C@H]3[C@H](c3cccc(Cl)c3F)[C@]23C(=O)Nc2cc(Cl)ccc23)c1 [Compound I-284] | 3
25 | O=C1NCC[C@H]2[C@@H]1[C@H](c1cccc(Cl)c1F)[C@]1(C(=O)Nc3cc(Cl)ccc31)N2CC1CC1 [Compound I-1] | 86
26 | O=C1[C@@H]2[C@H](CCN1c1ccc(-c3nnn[nH]3)cc1)N(CC1CC1)[C@@]1(C(=O)Nc3cc(Cl)ccc31)[C@H]2c1cccc(Cl)c1F [Compound I-72] | 17
27 | O=C(O)c1ccc(N2C[C@@H]3[C@H](C2=O)[C@@H](c2cccc(Cl)c2F)[C@@]2(C(=O)Nc4cc(Cl)ccc42)N3CC2CCCCC2)cc1 [Compound I-235] | 980

Row | Compound | IC50 [nM]
28 | COC(=O)c1ccc(N2CC[C@H]3[C@@H](C2=O)[C@H](c2cccc(Cl)c2F)[C@]2(C(=O)Nc4cc(Cl)ccc42)N3CC2CC2C)cc1 (some centres unmarked) [Compound I-69] | 447
29 | O=C(O)c1ccc(N2CC[C@H]3[C@@H](C2=O)[C@H](c2cccc(Cl)c2F)[C@]2(C(=O)Nc4cc(Cl)ccc42)N3CC2CC2)c([N+](=O)[O-])c1 [Compound I-192] | 40
30 | CCOc1cccc(CN2[C@@H]3CN(c4ccc(C(=O)O)cc4)C(=O)[C@@H]3[C@@H](c3cccc(Cl)c3F)[C@@]23C(=O)Nc2cc(Cl)ccc23)c1 [Compound I-239] | 1160
31 | O=C1NCC[C@H]2[C@@H]1[C@H](c1cccc(Cl)c1F)[C@]1(C(=O)Nc3cc(Cl)c(F)cc31)N2CC1CC1 [Compound I-17] | 324
32 | O=C(O)c1cccc(N2CC[C@H]3[C@@H](C2=O)[C@H](c2cccc(Cl)c2F)[C@]2(C(=O)Nc4cc(Cl)ccc42)N3CC2CC2)c1 [Compound I-175] | 2130
33 | O=C(O)c1ccc(N2CC[C@H]3[C@@H](C2=O)[C@H](c2cccc(Cl)c2F)[C@]2(C(=O)Nc4cc(Cl)ccc42)N3CC2CCC2)cc1 [Compound I-198] | 27
34 | CNS(=O)(=O)c1ccc(N2CC[C@H]3[C@@H](C2=O)[C@H](c2cccc(Cl)c2F)[C@]2(C(=O)Nc4cc(Cl)ccc42)N3CC2CC2)cc1 [Compound I-80] | 93
35 | O=CNc1ccc(N2CC[C@H]3[C@@H](C2=O)[C@H](c2cccc(Cl)c2F)[C@]2(C(=O)Nc4cc(Cl)ccc42)N3CC2CC2)cc1 [Compound I-298] | 86
36 | O=C(O)c1ccc(N2CC[C@H]3[C@@H](C2=O)[C@H](c2cccc(Cl)c2F)[C@]2(C(=O)Nc4cc(Cl)ccc42)N3CC2CC2)c(O)c1 [Compound I-264] | 49
37 | O=C(O)c1ccc(N2CC[C@H]3[C@@H](C2=O)[C@H](c2cccc(Cl)c2F)[C@]2(C(=O)Nc4cc(Cl)ccc42)N3CC2CC2)cc1 [Compound I-171] | 4
38 | O=C(O)c1ccc(N2CC[C@H]3[C@@H](C2=O)[C@H](c2cccc(Cl)c2F)[C@]2(C(=O)Nc4cc(Cl)ccc42)N3CC2CC2)cc1 [Compound I-170] | 11
39 | COCc1cc(N2CC[C@H]3[C@@H](C2=O)[C@H](c2cccc(Cl)c2F)[C@]2(C(=O)Nc4cc(Cl)ccc42)N3CC2CC2)ccn1 [Compound I-90] | 124
40 | CCOc1cccc(CN2[C@H]3CN(Cc4ccc(C(=O)O)cc4)C(=O)[C@H]3[C@H](c3cccc(Cl)c3F)[C@@]23C(=O)Nc2cc(Cl)ccc23)c1 [Compound I-248] | 485
41 | CCOc1cccc(CN2[C@H]3CN(c4ccc(C(=O)O)cc4)C(=O)[C@H]3[C@H](c3cccc(Cl)c3F)[C@]23C(=O)Nc2nc(Cl)ccc23)c1 [Compound I-240] | 4
42 | COc1cc(C(=O)O)ccc1N1CC[C@H]2[C@@H](C1=O)[C@H](c1cccc(Cl)c1F)[C@]1(C(=O)Nc3cc(Cl)ccc31)N2CC1CC1C (some centres unmarked) [Compound I-194] | 114
43 | CCOc1cccc(CN2[C@H]3CNC(=O)[C@H]3[C@H](c3cccc(Cl)c3F)[C@]23C(=O)Nc2cc(Cl)ccc23)c1 [Compound I-43] | 8
44 | NC(=O)c1ccc(N2C[C@H]3[C@@H](C2=O)[C@H](c2cccc(Cl)c2F)[C@]2(C(=O)Nc4cc(Cl)ccc42)N3CC2CC2)cc1C(F)(F)F [Compound I-281] | 67
45 | CON(C)C(=O)c1ccc(N2CC[C@H]3[C@@H](C2=O)[C@H](c2cccc(Cl)c2F)[C@]2(C(=O)Nc4cc(Cl)ccc42)N3CC2CC2)cc1 [Compound I-278] | 33
46 | NC(=O)c1ccc(N2C[C@H]3[C@@H](C2=O)[C@H](c2cccc(Cl)c2F)[C@]2(C(=O)Nc4cc(Cl)ccc42)N3CC2CC2)cc1 [Compound I-280] | 7
47 | COC(=O)c1ccc(N2C[C@H]3[C@@H](C2=O)[C@H](c2cccc(Cl)c2F)[C@]2(C(=O)Nc4cc(Cl)ccc42)N3CC2CC2)c(OC)c1 [Compound I-125] | 347
48 | O=C(O)c1csc(N2C[C@H]3[C@@H](C2=O)[C@H](c2cccc(Cl)c2F)[C@]2(C(=O)Nc4cc(Cl)ccc42)N3CC2CC2)n1 [Compound I-233] | 9
49 | NC(=O)c1ccc(N2CC[C@H]3[C@@H](C2=O)[C@H](c2cccc(Cl)c2F)[C@]2(C(=O)Nc4cc(Cl)ccc42)N3CC2CC2)cc1 [Compound I-268] | 26
50 | CCOc1cccc(CN2[C@H]3CN(c4ccc(C(=O)NO)cc4)C(=O)[C@H]3[C@H](c3cccc(Cl)c3F)[C@]23C(=O)Nc2cc(Cl)ccc23)c1 [Compound I-283] | 4
51 | COc1cc(C(=O)O)ccc1N1CC[C@H]2[C@@H](C1=O)[C@H](c1cccc(Cl)c1F)[C@]1(C(=O)Nc3cc(Cl)ccc31)N2CC1CCC1 [Compound I-200] | 134
52 | O=C(O)c1ccc(N2C[C@H]3[C@@H](C2=O)[C@H](c2cccc(Cl)c2F)[C@]2(C(=O)Nc4cc(Cl)ccc42)N3CC2CC2)cc1OC(F)(F)F [Compound I-259] | 11
53 | O=C(O)c1ccc(N2CC[C@H]3[C@@H](C2=O)[C@H](c2cccc(Cl)c2F)[C@]2(C(=O)Nc4cc(Br)ccc42)N3CC2CC2)cc1 [Compound I-204] | 15
